Residues, ends and D or L forms follow the SMILES beside them. *: point of attachment. Cbz = O=C(OCc1ccccc1)*
Tests used:
[1] = Solubility determination; type: physicochemical
[2] = test system: K562 cells; test: K562 subcutaneous tumor model (BCR-Abl-driven tumors); type: in vivo, Female Scid-beige mice; conditions: K562 tumors, PO ×7, dosed as Compound 74
Experimental: Test compounds were administered by oral gavage at the indicated doses and schedules when tumors reached 200±50 mm^3 in size. […] Tumor size and body weight were monitored throughout the study.

[3] = target: p38α (Homo sapiens, UniProt Q16539); test: in-house p38α radioactive kinase assay using ATF-2 as a substrate; type: biochemical; conditions: ATF-2 substrate
p38α, sequence (Q16539 whole entry, the tested form may be a part): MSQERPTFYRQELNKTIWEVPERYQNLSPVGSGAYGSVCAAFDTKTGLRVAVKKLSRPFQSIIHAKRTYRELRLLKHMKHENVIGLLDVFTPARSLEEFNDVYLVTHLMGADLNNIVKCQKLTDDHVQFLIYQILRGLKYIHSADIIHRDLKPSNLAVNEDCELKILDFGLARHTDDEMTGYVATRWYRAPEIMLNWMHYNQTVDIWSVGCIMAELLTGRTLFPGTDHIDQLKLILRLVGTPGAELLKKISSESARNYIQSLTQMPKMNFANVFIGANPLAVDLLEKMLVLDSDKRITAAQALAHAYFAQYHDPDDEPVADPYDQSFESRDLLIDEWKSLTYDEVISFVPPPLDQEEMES
Experimental: p38 activity was assayed at room temperature in a 100 μL reaction containing 5 nM activated p38α enzyme and 1 μM ATF-2 (Activating Transcription Factor 2 fusion protein) as the substrate in 25 mM HEPES (pH 7.4), 100 μM Vanadate, 1 mM DTT, 10 mM MgCl2 and 10 μM [γ-^33P]-ATP (˜0.1 μCi P^33/reaction). The reaction was terminated after 30-40 minutes by adding 25% TCA, allowed to stand for 5 minutes, and then transferred directly to a GF-B membrane filter plate. The filter was washed twice for 30 seconds with 0.5% phosphoric acid using a Tomtec Mach III Automated Harvestor. After washing, the vacuum was continued for 30 seconds to dry the filter. Approximately 30 μL of scintillant was added per well to the filter plate and then read in a Liquid Scintillation Counter (Packard TopCount HTS).

[4] = target: Abl (Homo sapiens, UniProt P00519); test: protein kinase IC50 determination (ATP at Km); type: biochemical; conditions: ATP concentration at Km
Abl, sequence (P00519 whole entry, species assumed): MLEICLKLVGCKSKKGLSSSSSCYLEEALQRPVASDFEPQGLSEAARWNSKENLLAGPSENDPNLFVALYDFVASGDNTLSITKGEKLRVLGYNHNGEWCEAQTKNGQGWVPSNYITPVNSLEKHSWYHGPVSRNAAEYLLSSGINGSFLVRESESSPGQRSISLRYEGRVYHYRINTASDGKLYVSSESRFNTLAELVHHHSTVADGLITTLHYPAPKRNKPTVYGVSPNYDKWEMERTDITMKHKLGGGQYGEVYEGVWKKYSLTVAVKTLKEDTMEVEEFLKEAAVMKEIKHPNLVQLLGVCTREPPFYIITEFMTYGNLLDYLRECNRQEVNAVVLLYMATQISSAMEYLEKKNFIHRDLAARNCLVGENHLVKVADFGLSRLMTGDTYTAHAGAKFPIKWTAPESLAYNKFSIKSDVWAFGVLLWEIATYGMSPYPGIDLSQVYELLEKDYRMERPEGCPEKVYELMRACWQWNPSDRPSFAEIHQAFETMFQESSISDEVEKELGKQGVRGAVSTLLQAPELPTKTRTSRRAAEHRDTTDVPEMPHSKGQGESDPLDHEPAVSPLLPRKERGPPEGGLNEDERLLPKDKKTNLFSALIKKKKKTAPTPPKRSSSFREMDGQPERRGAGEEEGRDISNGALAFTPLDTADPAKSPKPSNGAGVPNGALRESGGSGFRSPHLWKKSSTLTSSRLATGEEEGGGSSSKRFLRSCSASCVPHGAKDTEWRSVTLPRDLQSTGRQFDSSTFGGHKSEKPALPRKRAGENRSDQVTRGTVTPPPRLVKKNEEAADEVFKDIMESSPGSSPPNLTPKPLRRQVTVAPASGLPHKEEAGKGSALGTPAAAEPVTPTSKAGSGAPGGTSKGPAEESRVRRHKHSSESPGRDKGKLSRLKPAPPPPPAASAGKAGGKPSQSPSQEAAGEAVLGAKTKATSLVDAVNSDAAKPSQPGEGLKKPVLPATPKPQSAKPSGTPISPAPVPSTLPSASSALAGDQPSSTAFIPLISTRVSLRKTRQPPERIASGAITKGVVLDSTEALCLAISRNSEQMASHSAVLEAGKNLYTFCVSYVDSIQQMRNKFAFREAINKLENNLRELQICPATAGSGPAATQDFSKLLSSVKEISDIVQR

[5] = target: Tie2 (Homo sapiens, UniProt Q02763); test: protein kinase IC50 determination (ATP at Km); type: biochemical; conditions: ATP concentration at Km
Tie2, sequence (Q02763 23-1124, species assumed): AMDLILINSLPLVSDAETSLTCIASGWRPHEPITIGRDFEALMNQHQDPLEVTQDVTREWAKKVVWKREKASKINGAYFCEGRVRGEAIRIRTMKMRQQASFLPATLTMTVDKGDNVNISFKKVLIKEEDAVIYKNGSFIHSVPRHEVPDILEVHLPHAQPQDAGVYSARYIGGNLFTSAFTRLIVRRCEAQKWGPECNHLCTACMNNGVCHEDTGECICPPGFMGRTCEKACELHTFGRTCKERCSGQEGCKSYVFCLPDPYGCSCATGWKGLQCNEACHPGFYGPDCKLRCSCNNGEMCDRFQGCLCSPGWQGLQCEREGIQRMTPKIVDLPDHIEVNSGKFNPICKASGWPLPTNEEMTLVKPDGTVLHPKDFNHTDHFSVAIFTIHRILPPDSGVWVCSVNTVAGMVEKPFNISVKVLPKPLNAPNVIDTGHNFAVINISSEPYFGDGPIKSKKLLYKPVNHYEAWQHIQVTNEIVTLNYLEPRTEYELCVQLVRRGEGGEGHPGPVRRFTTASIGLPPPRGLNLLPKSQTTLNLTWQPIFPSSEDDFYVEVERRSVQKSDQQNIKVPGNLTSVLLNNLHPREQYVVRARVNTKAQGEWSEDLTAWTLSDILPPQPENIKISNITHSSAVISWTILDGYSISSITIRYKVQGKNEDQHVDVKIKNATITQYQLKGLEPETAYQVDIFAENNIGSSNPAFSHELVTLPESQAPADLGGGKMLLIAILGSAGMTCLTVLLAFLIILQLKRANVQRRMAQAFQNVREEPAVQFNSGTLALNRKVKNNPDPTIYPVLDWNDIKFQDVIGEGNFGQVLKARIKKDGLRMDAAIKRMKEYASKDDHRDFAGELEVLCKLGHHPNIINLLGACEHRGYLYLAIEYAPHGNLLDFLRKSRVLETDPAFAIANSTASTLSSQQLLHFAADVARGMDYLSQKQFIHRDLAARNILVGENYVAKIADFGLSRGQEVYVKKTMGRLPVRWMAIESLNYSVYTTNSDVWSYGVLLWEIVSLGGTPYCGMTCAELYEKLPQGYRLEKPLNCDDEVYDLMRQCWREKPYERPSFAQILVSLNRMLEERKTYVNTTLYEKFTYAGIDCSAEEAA

[6] = test system: RPMI 8226; test: RPMI 8226 cell viability (CellTiter Blue); type: cell-based; conditions: Homo sapiens; RPMI 8226, 72 hours; read-out: Proliferation IC50
Experimental: Cell viability was then measured using CellTiter Blue (Promega) to determine IC50 values for each compound (Table 8). […] MG-132 produced an IC50 that was within historical ranges of in-house testing (Table 8).

Structure (SMILES) | solubility ([1]; pH 1.2, simulated gastric fluid) | % Regression ([2]; 30 mg/kg BID) | % Regression ([2]; 100 mg/kg BID) | % Regression ([2]; 100 mg/kg QD) | IC50 [3] | IC50 [4] | IC50 [5] | solubility ([1]; pH 6.5, aqueous buffer) | solubility ([1]; pH 7.4, aqueous buffer) | IC50 [6]
Cc1ccc(-n2nc(C(C)(C)C)cc2NC(=O)NCc2cc(F)ccc2Oc2ccc3c(cnn3CCOP(=O)(O)O)c2)cc1 [Compound 74, 2-(5-(2-(3-(3-tert-butyl-1-p-tolyl-1H-pyrazol-5-yl)ureido)methyl)-4-fluorophenoxy)-1H-indazol-1-yl)ethyl dihydrogenphosphate] | < 1000 µg/mL | tumor stasis | 94% | tumor stasis | – | – | – | – | – | –
Cc1ccc(-n2nc(C(C)(C)C)cc2NC(=O)NCc2cc(F)ccc2Oc2ccc3c(cnn3C)c2)cc1 [Example 94] | – | – | – | – | < 2 nM | 10 nM | 4 nM | < 1 µg/mL | < 1 µg/mL | –
CC(C)C[C@@H](C=O)NC(=O)[C@H](CC(C)C)NC(=O)[C@H](CC(C)C)NC(=O)OCc1ccccc1 [MG-132, reference compound] (Cbz-Leu-Leu-Leu-aldehyde) | – | – | – | – | – | – | – | – | – | 114 nM
Cn1nc(C(C)(C)C)cc1NC(=O)NCc1cc(F)ccc1Oc1ccc2c(cnn2CC(C)(C)O)c1 [Example 138] | – | – | – | – | < 2 nM | > 500 nM | > 500 nM | < 1 µg/mL | < 1 µg/mL | –

Reference: patent US8039639B2, “Kinase inhibitors and methods of use thereof” (Array BioPharma Inc., priority 2006, dated 2011)
